In this test the test system is L1210 leukemia ip in BDF1 mice, survival T/C. The experiment in a line: NCI In Vivo Anticancer Drug Screen. Data for tumor model L1210 Leukemia (intraperitoneal) in B6D2F1 (BDF1) mice. Particulars: endpoint: mean survival time, higher = longer survival. Summed up: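 Mice bearing the transplanted tumor received compound or vehicle. Survival of the treated group was divided by that of the vehicle-treated control group to give the ratio.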

Where [1] appears, read: dose: 100.0 mg/kg/injection, schedule: Q01DX001 (ip), vehicle: saline.
Where [2] appears, read: dose: 200.0 mg/kg/injection, schedule: Q01DX001 (ip), vehicle: saline.
[3] abbreviates: dose: 100.0 mg/kg/injection, schedule: Q01DX009 (ip), vehicle: Klucel (hydroxypropylcellulose) (HPC).
Setting [4] is: dose: 100.0 mg/kg/injection, schedule: Q04DX003 (ip), vehicle: Klucel (hydroxypropylcellulose) (HPC).
The mark [5] stands for this setting: dose: 200.0 mg/kg/injection, schedule: Q01DX009 (ip), vehicle: Klucel (hydroxypropylcellulose) (HPC).
Setting [6] is: dose: 200.0 mg/kg/injection, schedule: Q04DX003 (ip), vehicle: Klucel (hydroxypropylcellulose) (HPC).
Where [7] appears, read: dose: 400.0 mg/kg/injection, schedule: Q04DX003 (ip), vehicle: Klucel (hydroxypropylcellulose) (HPC).
The mark [8] stands for this setting: dose: 100.0 mg/kg/injection, schedule: Q04DX003 (ip), vehicle: saline with Tween-80.
Where [9] appears, read: dose: 200.0 mg/kg/injection, schedule: Q04DX003 (ip), vehicle: saline with Tween-80.
[10] abbreviates: dose: 400.0 mg/kg/injection, schedule: Q04DX003 (ip), vehicle: saline with Tween-80.
[11] abbreviates: dose: 100.0 mg/kg/injection, schedule: Q04DX003 (ip), vehicle: saline.
Setting [12] is: dose: 200.0 mg/kg/injection, schedule: Q04DX003 (ip), vehicle: saline.
Where [13] appears, read: dose: 400.0 mg/kg/injection, schedule: Q04DX003 (ip), vehicle: saline.
Setting [14] is: dose: 100.0 mg/kg/injection, schedule: Q01DX009 (ip), vehicle: saline.

Several values for one entry are separate records, joined by “and”; a condition that tells them apart may be missing. Identical values can stand only once. Toxic doses and inconclusive results are not listed.

Consider `CCOC(=O)C1(N)CCCC1`, for which the T/C is 105 % of control (dose: 15.0 mg/kg/injection, schedule: Q01DX Z (ip), vehicle: carboxymethylcellulose (CMC)); 108 % of control (dose: 23.0 mg/kg/injection, schedule: Q01DX Z (ip), vehicle: carboxymethylcellulose (CMC)); 96 % of control (dose: 31.3 mg/kg/injection, schedule: Q01DX015 (ip), vehicle: saline); 117 % of control (dose: 35.0 mg/kg/injection, schedule: Q01DX Z (ip), vehicle: carboxymethylcellulose (CMC)); 124 % of control (dose: 62.5 mg/kg/injection, schedule: Q01DX015 (ip), vehicle: saline); 122 % of control (dose: 83.0 mg/kg/injection, schedule: Q01DX Z (ip), vehicle: carboxymethylcellulose (CMC)). Further, the T/C is, setting by setting: (dose: 125.0 mg/kg/injection, schedule: Q01DX015 (ip), vehicle: saline) 150 % of control; (dose: 125.0 mg/kg/injection, schedule: Q01DX Z (ip), vehicle: carboxymethylcellulose (CMC)) 122 % of control; (dose: 188.0 mg/kg/injection, schedule: Q01DX Z (ip), vehicle: carboxymethylcellulose (CMC)) 110 % of control; (dose: 250.0 mg/kg/injection, schedule: Q01DX015 (ip), vehicle: saline) 157 % of control; (dose: 500.0 mg/kg/injection, schedule: Q01DX015 (ip), vehicle: saline) 118 % of control.
As to `CCCCCCCCCCCCCCCNC1=C(OC)C(=O)C(NCCCCCCCCCCCCCCC)=C(OC)C1=O`, the T/C (dose: 100.0 mg/kg/injection, schedule: Q01DX001 (ip), vehicle: other) was 90 % of control; the T/C (dose: 200.0 mg/kg/injection, schedule: Q01DX001 (ip), vehicle: other) was 93 % of control; the T/C (dose: 400.0 mg/kg/injection, schedule: Q01DX001 (ip), vehicle: other) is 96 % of control.
`CC(C)(C)CC(C)(C)c1ccc(OCCOc2ccc(C(=O)O)cc2N)cc1`: the T/C reads like this: under setting [1], 92 % of control; under setting [2], 96 % of control.
For `Cc1ccc(NC(=O)Nc2ccc(Cl)c(Cl)c2)c(C)c1`, the T/C under setting [3] was 90 % of control; the T/C under setting [4] is 89 % of control; the T/C under setting [5] was 90 % of control; the T/C under setting [6] was 89 % of control; the T/C under setting [7] is 89 % of control.
For the compound `COC(=O)C(C(=O)OC)C(Br)C(Br)C(Br)c1ccccc1` (stereo not given), the T/C was 91 % of control (dose: 75.0 mg/kg/injection, schedule: Q01DX001 (ip), vehicle: other); 94 % of control (dose: 150.0 mg/kg/injection, schedule: Q01DX001 (ip), vehicle: other); 96 % of control (dose: 300.0 mg/kg/injection, schedule: Q01DX001 (ip), vehicle: other).
As for `CC(C)(C)C(=O)CC(=O)C(C)(C)C.CC(C)(C)C(=O)CC(=O)C(C)(C)C.CC(C)(C)C(=O)CC(=O)C(C)(C)C.CC(C)(C)C(=O)CC(=O)C(C)(C)C.[Th]`, the T/C was 96 % of control under setting [8], 98 % of control under setting [9] and 90 % of control under setting [10].
As for `COC1CCC(NC(=O)NCCCl)CC1` (stereo not given), the T/C reads like this: (dose: 100.0 mg/kg/injection, schedule: Q01DX001 (ip), vehicle: Klucel (hydroxypropylcellulose) (HPC)) 95 % of control; under setting [4], 103 % of control; (dose: 200.0 mg/kg/injection, schedule: Q01DX001 (ip), vehicle: Klucel (hydroxypropylcellulose) (HPC)) 102 % of control; under setting [6], 97 % of control; (dose: 400.0 mg/kg/injection, schedule: Q01DX001 (ip), vehicle: Klucel (hydroxypropylcellulose) (HPC)) 95 % of control; under setting [7], 97 % of control.
As for `CC1=CC(=O)NP(=O)(Oc2ccc3ccccc3c2)N1` (stereo not given), the T/C (dose: 50.0 mg/kg/injection, schedule: Q01DX005 (ip), vehicle: other) was 95 % of control; the T/C (dose: 100.0 mg/kg/injection, schedule: Q01DX005 (ip), vehicle: other) was 96 % of control; the T/C (dose: 200.0 mg/kg/injection, schedule: Q01DX005 (ip), vehicle: other) was 95 % of control; the T/C (dose: 400.0 mg/kg/injection, schedule: Q01DX005 (ip), vehicle: other) was 92 % of control.
Take `CC(=O)OC1C(OC(C)=O)C2C(C)(C)CCCC2(C)C2Cc3occc3C(C)C12` (stereo not given): the T/C by setting is: under setting [11], 120 % of control; under setting [12], 117 % of control; under setting [13], 103 % of control.
As to `C/C(=N/Nc1ccc([N+](=O)[O-])cc1[N+](=O)[O-])c1ccccc1`, the T/C is, setting by setting: under setting [8], 88 % of control; under setting [9], 93 % of control; under setting [10], 90 % of control.
On to `O/N=C/c1cccc(/C=N/O)c1`, for which the T/C (dose: 50.0 mg/kg/injection, schedule: Q01DX009 (ip), vehicle: saline with Tween-80) is 94 % of control; the T/C (dose: 50.0 mg/kg/injection, schedule: Q04DX003 (ip), vehicle: saline with Tween-80) is 95 % of control; the T/C (dose: 100.0 mg/kg/injection, schedule: Q01DX009 (ip), vehicle: saline with Tween-80) is 98 % of control; the T/C under setting [8] was 97 % of control; the T/C (dose: 200.0 mg/kg/injection, schedule: Q01DX009 (ip), vehicle: saline with Tween-80) was 102 % of control; the T/C under setting [9] was 100 % of control. The T/C is 95 % of control (dose: 400.0 mg/kg/injection, schedule: Q01DX009 (ip), vehicle: saline with Tween-80) and 93 % of control under setting [10].
On to `COC(=O)C(N)CSCSC` (stereo not given), for which the T/C by setting is: under setting [14], 107 % of control; under setting [11], 103 % of control; (dose: 200.0 mg/kg/injection, schedule: Q01DX009 (ip), vehicle: saline) 101 % of control; under setting [12], 105 % of control; (dose: 400.0 mg/kg/injection, schedule: Q01DX009 (ip), vehicle: saline) 101 % of control; under setting [13], 97 % of control.
As to `CCCCOCc1c(CO)cnc(C)c1O`, the T/C by setting is: (dose: 25.0 mg/kg/injection, schedule: Q04DX002 (ip), vehicle: saline) 99 % of control; (dose: 50.0 mg/kg/injection, schedule: Q04DX002 (ip), vehicle: saline) 96 % of control; (dose: 100.0 mg/kg/injection, schedule: Q04DX002 (ip), vehicle: saline) 93 % of control and 96 % of control.
As to `CC(CC(=O)O)C1Nc2ccccc2S(=O)(=O)C(c2ccccc2)C1=O` (stereo not given), the T/C by setting is: under setting [4], 95 % of control and 100 % of control; under setting [6], 99 % of control.
For `O=C(Nc1ccc([N+](=O)[O-])cc1Cl)Oc1ccc(OCc2ccccc2)cc1`, the T/C is 91 % of control under setting [4], 91 % of control under setting [6] and 96 % of control under setting [7].
Regarding `COc1ccc(NC(=O)c2c(Br)c(Br)c(Br)c(Br)c2C(=O)O)c(Cl)c1`, the T/C is 96 % of control under setting [3] and 93 % of control under setting [5].
As to `CCCC(=O)Nc1ccc(N)cc1OC`, the T/C by setting is: (dose: 5.0 mg/kg/injection, schedule: Q01DX009 (ip), vehicle: saline) 100 % of control; (dose: 5.0 mg/kg/injection, schedule: Q04DX003 (ip), vehicle: Klucel (hydroxypropylcellulose) (HPC)) 96 % of control; (dose: 10.0 mg/kg/injection, schedule: Q01DX009 (ip), vehicle: saline) 100 % of control; (dose: 10.0 mg/kg/injection, schedule: Q04DX003 (ip), vehicle: Klucel (hydroxypropylcellulose) (HPC)) 102 % of control; (dose: 20.0 mg/kg/injection, schedule: Q01DX009 (ip), vehicle: saline) 100 % of control; (dose: 20.0 mg/kg/injection, schedule: Q04DX003 (ip), vehicle: Klucel (hydroxypropylcellulose) (HPC)) 96 % of control.
As to `CCOC(=O)NC(S(=O)(=O)O)S(=O)(=O)O.[Tl]`, the T/C (dose: 25.0 mg/kg/injection, schedule: Q01DX001 (ip), vehicle: saline with Tween-80) was 102 % of control.
Consider `Clc1cnc[nH]1`, for which the T/C is 105 % of control (dose: 25.0 mg/kg/injection, schedule: Q01DX009 (ip), vehicle: saline); 108 % of control (dose: 50.0 mg/kg/injection, schedule: Q01DX009 (ip), vehicle: saline); 102 % of control under setting [1]; 105 % of control under setting [14]; 110 % of control under setting [2]; 102 % of control (dose: 400.0 mg/kg/injection, schedule: Q01DX001 (ip), vehicle: saline).
